These are literature values, as cited in patent US20060233724A1, “Medicinal composition for peridontal pocket administration containing bisphosphonic acid derivative or its salt as the active ingredient” (Toray Industries, Inc., priority 2002, published 2006).

The test system of series [1] is involution of alveolar bone. The note with it: hamster periodontal disease models.
For series [2], the system named is involution of alveolar bone, attachment level. To be noted: canine periodontal disease models, subcutaneous or oral administration.
Series [3] deals with destruction of alveolar bone. The note with it: simian periodontal disease model, oral administration.
The test system of series [4] is destruction of alveolar bone. To be noted: canine periodontal disease model, oral administration.
In series [5] the test system is experimental movement of molars. The note with it: rat.

Read-outs that look alike come from different tables or passages of the source.

`O=P(O)(O)C(NC1CCCCCC1)P(=O)(O)O` [Incadronate disodium, 1-(cycloheptylamino) methylidene-1,1-bisphosphonic acid]: the “involution of alveolar bone” value in series [1] is recorded as “exhibits inhibiting action against involution of alveolar bone”. In addition, in series [2], the attachment level entry is given as “action of improvement in attachment level” and the “involution of alveolar bone” value is reported as “action against involution of alveolar bone”.

On to `NCCCC(O)(P(=O)(O)O)P(=O)(O)O` [alendronate, 4-amino-1-hydroxybutylidene-1,1-bisphosphonic acid], for which the “destruction of alveolar bone” value in series [3] and in series [4] was “inhibited destruction of alveolar bone” each time.

Take `NCCC(O)(P(=O)(O)O)P(=O)(O)O` [pamidronate]: the “effect in experimental movement of molars” value in series [5] (local submucosal administration to the palate) is “effective”.

As to `O=P(O)(O)C(O)(Cc1cccnc1)P(=O)(O)O` [risedronate, 1-hydroxy-2-(3-pyridyl)ethylidene-1,1-bisphosphonic acid], the “effect in experimental movement of molars” value in series [5] (local administration to the vicinity of first molar) is given as “effective”.
